Measured values reported in ChEMBL document CHEMBL4020750 (Bioorg Med Chem Lett, 2017).

Tested on: not listed separately
Experiment: Cmax in mouse at 50 mg/kg, administered through oral gavage by LC-MS analysis
Assay type: ADME, organism-based
Design: dose 50 mg/kg, route oral
Details: in vivo

Cmax | Compound
2.1 µM | CCOc1c(Br)cc(Br)cc1CN[C@H]1CCCN(c2nc3nc(Cl)ccc3[nH]2)C1
1.3 µM | CN(CCN[C@@H]1CCNc2c(Cl)cc(Cl)cc21)c1nc2nc(Cl)ccc2[nH]1
14.7 µM | Clc1cc(Cl)c2c(c1)C(N[C@H]1CCCN(c3nc4nc(Cl)ccc4[nH]3)C1)CCN2 (some centres not stated)
19.2 µM | Clc1cc(Br)cc(CN[C@H]2CCCN(c3nc4nc(Cl)ccc4[nH]3)C2)c1

Tested on: not listed separately
Experiment: Cytotoxicity against human CRL8155 cells after 48 hrs by alamar blue assay
Assay type: cell-based
Details: crl8155, 48 h

Compound | CC50
CCOc1c(Br)cc(Br)cc1CN[C@H]1CCCN(c2nc3nc(Cl)ccc3[nH]2)C1 | 10500 nM
CN(CCN[C@@H]1CCNc2c(Cl)cc(Cl)cc21)c1nc2nc(Cl)ccc2[nH]1 | 18500 nM
Clc1cc(Cl)c2c(c1)C(N[C@H]1CCCN(c3nc4nc(Cl)ccc4[nH]3)C1)CCN2 (some centres not stated) | 19000 nM
Clc1ccc2nc(N3CCC[C@H](NCc4cc(Br)cc(Br)c4)C3)[nH]c2n1 | 47600 nM
Clc1cc(Br)cc(CN[C@H]2CCCN(c3nc4nc(Cl)ccc4[nH]3)C2)c1 | 43000 nM

Tested on: Trypanosoma brucei
Experiment: Antitrypanosomal activity against Trypanosoma brucei 427 bloodstream forms after 48 hrs by alamar blue assay
Assay type: functional
Details: Trypanosoma brucei, 427, 48 h; read-out: EC50

Compound | EC50
Clc1cc(Cl)c(OC2CC2)c(CN[C@H]2CCCN(c3nc4nc(Cl)ccc4[nH]3)C2)c1 | 3120 nM
CCOc1c(Br)cc(Br)cc1CN[C@H]1CCCN(c2nc3nc(Cl)ccc3[nH]2)C1 | 40 nM
N#Cc1cc(Cl)cc(CN[C@H]2CCCN(c3nc4nc(Cl)ccc4[nH]3)C2)c1 | 111 nM
CN(CCN[C@@H]1CCNc2c(Cl)cc(Cl)cc21)c1nc2nc(Cl)ccc2[nH]1 | 4 nM
CCCOc1c(Cl)cc(Cl)cc1CN[C@H]1CCCN(c2nc3nc(Cl)ccc3[nH]2)C1 | 827 nM
COC(=O)C(NCCN(C)c1nc2nc(Cl)ccc2[nH]1)c1cc(Cl)cc(Cl)c1 (configuration not stated) | 5270 nM
CCOc1c(Cl)cc(Cl)cc1CN[C@H]1CCCN(c2nc3nc(Cl)ccc3[nH]2)C1 | 111 nM
Oc1c(Cl)cc(Cl)cc1CN[C@H]1CCCN(c2nc3nc(Cl)ccc3[nH]2)C1 | 241 nM
CN(CCNC(C(N)=O)c1cc(Cl)cc(Cl)c1)c1nc2nc(Cl)ccc2[nH]1 (configuration not stated) | 4490 nM
COc1c(Br)cc(Br)cc1CN[C@H]1CCCN(c2nc3nc(Cl)ccc3[nH]2)C1 | 334 nM
CC(C)Oc1c(Cl)cc(Cl)cc1CN[C@H]1CCCN(c2nc3nc(Cl)ccc3[nH]2)C1 | 1700 nM
Clc1cc(Cl)c(OCC2CC2)c(CN[C@H]2CCCN(c3nc4nc(Cl)ccc4[nH]3)C2)c1 | 511 nM
CCNc1c(Cl)cc(Cl)cc1CN[C@H]1CCCN(c2nc3nc(Cl)ccc3[nH]2)C1 | 359 nM
Clc1cc(Br)cc(CN[C@H]2CCCN(c3nc4nc(Cl)ccc4[nH]3)C2)c1 | 71 nM

The remaining lines, values ahead:

EC50 | Compound
230 nM | CCOc1c(Br)cc(Cl)cc1CN[C@H]1CCCN(c2nc3nc(Cl)ccc3[nH]2)C1
995 nM | CN(CCNC(CO)c1cc(Cl)cc(Cl)c1)c1nc2nc(Cl)ccc2[nH]1 (configuration not stated)
57 nM | Clc1cc(Cl)c2c(c1)C(N[C@H]1CCCN(c3nc4nc(Cl)ccc4[nH]3)C1)CCN2 (some centres not stated)
326 nM | C=CCOc1c(Cl)cc(Cl)cc1CN[C@H]1CCCN(c2nc3nc(Cl)ccc3[nH]2)C1
354 nM | Clc1cc(Cl)c(Cl)c(CN[C@H]2CCCN(c3nc4nc(Cl)ccc4[nH]3)C2)c1
85 nM | Clc1ccc2nc(N3CCC[C@H](NCc4cc(Br)cc(Br)c4)C3)[nH]c2n1
357 nM | COc1c(Cl)cc(Cl)cc1CN[C@H]1CCCN(c2nc3nc(Cl)ccc3[nH]2)C1
314 nM | CCOc1c(Cl)cc(Cl)cc1CNCCN(C)c1nc2nc(Cl)ccc2[nH]1

Same assay, conditions: Trypanosoma brucei, 427, 48 h; read-out: pEC50 (converted)

Compound | EC50
CCOc1c(Br)cc(Br)cc1CN[C@H]1CCCN(c2nc3nc(Cl)ccc3[nH]2)C1 | 39.8 nM
CN(CCN[C@@H]1CCNc2c(Cl)cc(Cl)cc21)c1nc2nc(Cl)ccc2[nH]1 | 3.98 nM
Clc1cc(Br)cc(CN[C@H]2CCCN(c3nc4nc(Cl)ccc4[nH]3)C2)c1 | 63.1 nM

Further lines, results first:

EC50 | Compound
50.1 nM | Clc1cc(Cl)c2c(c1)C(N[C@H]1CCCN(c3nc4nc(Cl)ccc4[nH]3)C1)CCN2 (some centres not stated)
79.4 nM | Clc1ccc2nc(N3CCC[C@H](NCc4cc(Br)cc(Br)c4)C3)[nH]c2n1

Molecular target: not listed separately
Experiment: Inhibition of Trypanosoma brucei methionyl tRNA synthetase using L-methionine as substrate preincubated for 15 mins followed by substrate addition measured after 120 mins in presence of ATP by Kinase Glo chemiluminescence assay
Details: not given

Compound | IC50
Clc1cc(Cl)c(OC2CC2)c(CN[C@H]2CCCN(c3nc4nc(Cl)ccc4[nH]3)C2)c1 | 389 nM
CCOc1c(Br)cc(Br)cc1CN[C@H]1CCCN(c2nc3nc(Cl)ccc3[nH]2)C1 | < 50 nM
N#Cc1cc(Cl)cc(CN[C@H]2CCCN(c3nc4nc(Cl)ccc4[nH]3)C2)c1 | < 50 nM
CN(CCN[C@@H]1CCNc2c(Cl)cc(Cl)cc21)c1nc2nc(Cl)ccc2[nH]1 | < 50 nM
CCCOc1c(Cl)cc(Cl)cc1CN[C@H]1CCCN(c2nc3nc(Cl)ccc3[nH]2)C1 | < 50 nM
COC(=O)C(NCCN(C)c1nc2nc(Cl)ccc2[nH]1)c1cc(Cl)cc(Cl)c1 (configuration not stated) | 86 nM
CCOc1c(Cl)cc(Cl)cc1CN[C@H]1CCCN(c2nc3nc(Cl)ccc3[nH]2)C1 | < 50 nM
Oc1c(Cl)cc(Cl)cc1CN[C@H]1CCCN(c2nc3nc(Cl)ccc3[nH]2)C1 | < 50 nM
CN(CCNC(C(N)=O)c1cc(Cl)cc(Cl)c1)c1nc2nc(Cl)ccc2[nH]1 (configuration not stated) | 75 nM
COc1c(Br)cc(Br)cc1CN[C@H]1CCCN(c2nc3nc(Cl)ccc3[nH]2)C1 | < 50 nM
CC(C)Oc1c(Cl)cc(Cl)cc1CN[C@H]1CCCN(c2nc3nc(Cl)ccc3[nH]2)C1 | 305 nM
Clc1cc(Cl)c(OCC2CC2)c(CN[C@H]2CCCN(c3nc4nc(Cl)ccc4[nH]3)C2)c1 | < 50 nM
CCNc1c(Cl)cc(Cl)cc1CN[C@H]1CCCN(c2nc3nc(Cl)ccc3[nH]2)C1 | < 50 nM
Clc1cc(Br)cc(CN[C@H]2CCCN(c3nc4nc(Cl)ccc4[nH]3)C2)c1 | < 50 nM

Next, values leading:

IC50 | Compound
< 50 nM | CCOc1c(Br)cc(Cl)cc1CN[C@H]1CCCN(c2nc3nc(Cl)ccc3[nH]2)C1
101 nM | CN(CCNC(CO)c1cc(Cl)cc(Cl)c1)c1nc2nc(Cl)ccc2[nH]1 (configuration not stated)
89 nM | Clc1cc(Cl)c2c(c1)C(N[C@H]1CCCN(c3nc4nc(Cl)ccc4[nH]3)C1)CCN2 (some centres not stated)
< 50 nM | C=CCOc1c(Cl)cc(Cl)cc1CN[C@H]1CCCN(c2nc3nc(Cl)ccc3[nH]2)C1
< 50 nM | Clc1cc(Cl)c(Cl)c(CN[C@H]2CCCN(c3nc4nc(Cl)ccc4[nH]3)C2)c1
< 50 nM | Clc1ccc2nc(N3CCC[C@H](NCc4cc(Br)cc(Br)c4)C3)[nH]c2n1
< 50 nM | COc1c(Cl)cc(Cl)cc1CN[C@H]1CCCN(c2nc3nc(Cl)ccc3[nH]2)C1
< 50 nM | CCOc1c(Cl)cc(Cl)cc1CNCCN(C)c1nc2nc(Cl)ccc2[nH]1

Tested on: not listed separately
Experiment: AUC in mouse at 50 mg/kg, administered through oral gavage by LC-MS analysis
Assay type: ADME, organism-based
Details: in vivo

AUC | Compound
3.03 µM·h | CCOc1c(Br)cc(Br)cc1CN[C@H]1CCCN(c2nc3nc(Cl)ccc3[nH]2)C1
2.33 µM·h | CN(CCN[C@@H]1CCNc2c(Cl)cc(Cl)cc21)c1nc2nc(Cl)ccc2[nH]1
15.8 µM·h | Clc1cc(Cl)c2c(c1)C(N[C@H]1CCCN(c3nc4nc(Cl)ccc4[nH]3)C1)CCN2 (some centres not stated)
78.1 µM·h | Clc1cc(Br)cc(CN[C@H]2CCCN(c3nc4nc(Cl)ccc4[nH]3)C2)c1

Tested on: HepG2
Experiment: Cytotoxicity against human HepG2 cells after 48 hrs by alamar blue assay
Assay type: cell-based
Details: hepg2, 48 h

Compound | CC50
CCOc1c(Br)cc(Br)cc1CN[C@H]1CCCN(c2nc3nc(Cl)ccc3[nH]2)C1 | 18700 nM
CN(CCN[C@@H]1CCNc2c(Cl)cc(Cl)cc21)c1nc2nc(Cl)ccc2[nH]1 | 30600 nM
Clc1cc(Cl)c2c(c1)C(N[C@H]1CCCN(c3nc4nc(Cl)ccc4[nH]3)C1)CCN2 (some centres not stated) | 40200 nM
Clc1ccc2nc(N3CCC[C@H](NCc4cc(Br)cc(Br)c4)C3)[nH]c2n1 | 39100 nM
Clc1cc(Br)cc(CN[C@H]2CCCN(c3nc4nc(Cl)ccc4[nH]3)C2)c1 | > 50000 nM
